Legend:
healthy subjects = details: oral supplementation, vs control; cited from earlier work
[1] = Intact half-life during simulated gastric fluid (SGF) digestion; details: SGF pH 1.5, pepsin:polypeptide 1:20 w/w, 37° C.; intact protein
[2] = test system: serotonin (5-HT) synthesis; details: oral intake of free Tryptophan; cited from earlier work
[3] = test system: ribosomal protein S6 (rps6); assay: AlphaScreen SureFire rps6 phosphorylation in primary rat skeletal muscle cells; type: cell-based; details: primary RSkMC, different Leucine concentrations
Protocol: Primary Rat Skeletal Muscle Cell (RSKMC) culture. RSKMC were isolated using protocol described herein and cryopreserved in liquid nitrogen. The cells were also maintained in RSKMC medium (Cell Applications) in T75 tissue flask in a 37° C., 5% CO2 tissue culture incubator (Model 3110, Thermo Fisher Scientific). The cells were split every three day when they reached ˜90% confluency. RSKMC cells were cultured in RSKMC medium in T75 tissue flask to 100% confluency. The culture medium was aspirated from the culture flask and rinsed once with 10 ml of DPBS, and then 1.5 ml of 0.25% trypsin/EDTA was added to the cells. After the cells were detached from the flask, 10 ml of culture medium were added. The medium was pipetted up and down with a 10 ml pipet to detach the cells from the flask. The cells were then seeded into clear bottom 96-well tissue culture plates at a density of 50,000 cells per well. Following overnight culture in a 37° C., 5% CO2 incubator, the cells were starved over a period of 4 hours with starvation DME/F12 medium without FBS and leucine in a 37° C., 5% CO2 tissue culture incubator, then starved for another hour incubation with Hank's Buffered Salt Solution (HBSS). The cells were stimulated with different concentrations of leucine in starvation medium for 15 and 30 minutes. […]

burn injury = details: 0.35 g/kg supplementation, cited from earlier work
[4] = Thermostability, temperature of aggregation (ProteoStat Thermal Shift); type: physicochemical; details: Table E31D; heated 25° C. to 95° C.
Protocol: The thermostability of proteins in a buffer cocktail of Citric Acid and Dibasic Sodium Phosphate over a pH range of 2.8 to 7.1 (preparation described above in Table E31B) was determined using the ProteoStat® Thermal Shift Stability Kit (Enzo Life Sciences) according to the manufacturer's standard protocol. Briefly, protein solutions (˜10 mg/ml) containing 1× ProteoStat TS Detection Reagent were heated from 25° C. to 95° C. at a rate of 0.5° C. per 30 sec using a real-time PCR (rtPCR) thermocycler (BioRad) equipped with a plate reader (SynergyMx, Biotek) while monitoring the fluorescence with a Texas Red filter.

male Zucker fatty rats = assay: OGTT in Zucker fatty rats: SEQID-00105, alogliptin and combination, blood glucose; type: in vivo, rat; details: OGTT glucose 2 g/kg
Protocol: In another experiment, an OGTT was performed in 24, fasted, male Zucker fatty rats with indwelling jugular vein catheters (JVC) to assess the acute effects of nutritive protein dosing on glycemic control as well as insulin and GLP-1 levels. The capacity of SEQID-00105 to improve glucose control was tested by comparing the blood glucose excursion of SEQID-00105 to alogliptin to SEQID-00105+alogliptin to vehicle in the context of an oral glucose tolerance test. All rodents were approximately 10-11 weeks old, weighed average of approximately 430 g and acclimated for 4-5 days prior to testing. Prior to treatment, all rats were fasted overnight for fourteen hours. […] N=6 rats per treatment group. The error bars shown are the standard errors of the mean. Each group was compared post hoc on GraphPad Prism 6, two-way ANOVA, Dunnett's multiple comparisons test first comparing within each group to the fasting glucose concentration, followed by a comparison of each time point to vehicle. […] The integrated area under curve (AUC) was calculated on Microsoft Excel using the Linear-Log Trapezoidal Method and two-way ANOVA and Dunnett's multiple comparisons tests was conducted on GraphPad Prism 6.03.

Human transglutaminase = target: T1, Human transglutaminase (Homo sapiens, UniProt Q08188); details: read-out: Kd for calcium; cited from earlier work
T1 sequence (Q08188 1-693): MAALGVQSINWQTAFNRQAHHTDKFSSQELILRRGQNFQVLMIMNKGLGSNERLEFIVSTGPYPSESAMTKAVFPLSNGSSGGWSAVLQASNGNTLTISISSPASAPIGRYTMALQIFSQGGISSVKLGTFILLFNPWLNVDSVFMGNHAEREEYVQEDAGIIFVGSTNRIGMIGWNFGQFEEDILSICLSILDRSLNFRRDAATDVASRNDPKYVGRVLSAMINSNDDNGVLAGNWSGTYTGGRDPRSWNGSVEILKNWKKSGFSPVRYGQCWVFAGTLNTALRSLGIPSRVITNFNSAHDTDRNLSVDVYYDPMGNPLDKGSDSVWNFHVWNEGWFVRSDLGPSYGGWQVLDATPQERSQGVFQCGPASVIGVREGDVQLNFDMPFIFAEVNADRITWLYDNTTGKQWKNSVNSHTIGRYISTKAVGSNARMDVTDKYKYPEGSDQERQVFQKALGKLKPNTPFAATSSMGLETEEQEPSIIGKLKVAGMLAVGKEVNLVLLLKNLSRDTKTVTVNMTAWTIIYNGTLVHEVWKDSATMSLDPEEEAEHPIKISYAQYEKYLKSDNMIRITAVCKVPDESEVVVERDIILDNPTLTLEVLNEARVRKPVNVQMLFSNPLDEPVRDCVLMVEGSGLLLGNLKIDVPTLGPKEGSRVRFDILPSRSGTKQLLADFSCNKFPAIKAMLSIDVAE

[5] = SGF digest of 168 nutritive polypeptide library, intact protein by LC-MS/MS; type: in vitro ADME; details: 168 nutritive polypeptide library SGF digest, LC-MS/MS spectral counts
Protocol: The in vitro intact half-life of multiple polypeptides in a complex mixture was determined using the simulated gastric in vitro digestion described above. Briefly, the 168 nutritive polypeptide library was generated as described herein by cloning, transforming, and expressing a gene library encoding 168 proteins as a single mixture. The recombinantly expressed proteins were purified from host cell proteins by IMAC purification as described herein.
The 168 Protein Library was treated with SGF as described above and the t=0 and t=10 min samples were analyzed for intact protein by LC-MS/MS. To begin, 10 μg of sample was loaded onto a 10% SDS-PAGE gel (Invitrogen) and run approximately 5 cm into the gel. The gel was excised into ten fractions from 100 kD to the dye front and the gel slices were processed by washing with 25 mM ammonium bicarbonate, followed by acetonitrile. Gel fractions were then reduced with 10 mM dithiothreitol at 60° C., followed by alkylation with 50 mM iodoacetamide at room temperature. […] The samples were then analyzed by nano LC/MS/MS using an EasynLC 1000 HPLC system interfaced to a ThermoFisher Q Exactive. […] A full list of detected proteins and their spectral counts (SpC) was generated and reported as a function of each collected gel fraction. […]

## N=C(N)NCCC[C@H](N)C(=O)O [arginine, Arginine]
Healthy subjects
  increase in collagen deposition at wound sites: 2.4 ×

## SEQID-00218: nutritive polypeptide (GTIENLEEAKKKLLKDVEVLSQRLEEKALAYDKLEKTKTRLQQELDDLLVDLDHQ; listed as Bos taurus)
[1]
  SGF Half-life (t½): 360 s

## N[C@@H](Cc1c[nH]c2ccccc12)C(=O)O [Tryptophan]
[2]
  increase of 5-HT production: 2 fold

## CC(C)C[C@H](N)C(=O)O [leucine]
[3]
  phosphorylation of rps6: stimulates phorphorylation of rps6 in primary RSkMC in a dose-dependent manner

## SEQID-00143: nutritive polypeptide (LYLEEVSKNLVEINPLKLEVKAKPWFVYTPMHGVGFDIFSTIVKKTLCLVEGK; listed as Saccharomyces cerevisiae)
[1]
  SGF Half-life (t½): 18 s

## SEQID-00212: nutritive polypeptide (LEEAKKKLLKDVEVLSQRLEEKALAYDKLEKTKTRLQQELDDLLVDLDHQ; listed as Bos taurus)
[1]
  SGF Half-life (t½): 18 s

## NC(=O)CC[C@H](N)C(=O)O [Glutamine]
Burn injury; 12-day burn injury study
  reduction in hospital stay: 6 days
Burn injury; after 3 days, vs 5.5× decrease
  decrease in Lactulose/mannitol ratio: 8.8 ×

## SEQID-00215: nutritive polypeptide (KKLLKDVEVLSQRLEEKALAYDKLEKTKTRLQQELDDLLVDLDHQRQIVSNLEKK; listed as Bos taurus)
[1]
  SGF Half-life (t½): 120 s

## SEQID-00237: nutritive polypeptide (EEDKVNTLTKAKTKLEQQVDDLEGSLEQEKKLRMDLERAKRKLEGDLKLA; listed as Bos taurus)
[4]
  Tagg (pH 7.1): 45
[1]
  SGF Half-life (t½): 36 s

## Cn1c(=O)cc(N2CCC[C@@H](N)C2)n(Cc2ccccc2C#N)c1=O [Alogliptin]
Male Zucker fatty rats; at 30 minutes following glucose challenge
  blood glucose compared to vehicle: significantly lower blood glucose than vehicle
Male Zucker fatty rats; at 60 minutes following glucose challenge
  blood glucose compared to vehicle: significantly lower than vehicle
Male Zucker fatty rats; between time 0 and 120 minutes, P=0.0051
  glucose AUC compared to vehicle: significantly less than vehicle
Male Zucker fatty rats; between time 0 and 240 minutes, P=0.0054
  glucose AUC compared to vehicle: significantly less than vehicle

## [Ca+2] [calcium, calcium (Ca2+)]
Human transglutaminase
  Kd: 0.3 to 3 µM

## SEQID-00615: protein of the 168 nutritive polypeptide library (MAGIIHKIEETLHMGGGRKEEEEKRKGEGQGHGGYKGEGQGHGGYKGEGQG; listed as Vitis vinifera)
[5]
  % Intact Protein at 10 min: 85.7%
